Test system: TLR9
Experiment: TLR9-induced IFNalpha in isolated human pDCs (CpG2216, AlphaLISA)
Assay type: cell-based
Settings: read-out: TLR9-ligand induced IFNα in human pDCs IC50
Protocol: 2.4 Determination of TLR9-Induced IFNalpha in Human Peripheral Blood Mononuclear Cells (PBMCs) and Isolated Plasmacytoid Dendritic Cells (pDCs)
Human PBMCs were prepared using Buffy Coats as source material from healthy donations (approx. 50 ml obtained from Blutspendezentrum SRK Basel) and processed as indicated above. […]
Compounds were pre-diluted in 100% v/v DMSO (#41640-100 mL; Sigma-Aldrich), followed by transfer in Media (to achieve a final DMSO concentration of 0.25%). […] Plates were briefly centrifuged (200×g for 2 min at 22° C.) and supernatant samples (30 μl) removed for quantification of IFNα levels.
For quantification of IFNalpha the human interferon AlphaLISA Kit (#AL264F) from PerkinElmer was used. […] After incubation, the plates were read with an EnVision™ multiplate reader equipped with the ALPHA option using the instrument's own “AlphaScreen standard settings” (e.g. total measurement time: 550 ms, Laser 680 nm excitation time: 180 ms, mirror: D640 as, emission filter: M570w, center wavelength 570 nm, bandwidth 100 nm, transmittance 75%). Data were collected for analysis and quantification of IFNα levels.
Data were analysed using Excel XL fit 4.0 (Microsoft) with XLfit add-in (IDBS; version 4.3.2). Specific IFNα concentrations were determined following extrapolation to standard curves using human IFNα B (2b). […]

CCC(=O)N1CC[C@H](Nc2ncnc3c2CN(c2cnc(OC)c(C(F)(F)F)c2)CC3)C1 [Example 67, 1-{(S)-3-[6-(6-Methoxy-5-trifluoromethyl-pyridin-3-yl)-5,6,7,8-tetrahydro-pyrido[4,3-d]pyrimidin-4-ylamino]-pyrrolidin-1-yl}-propan-1-one]
IC50: 33 nM
